Assay results from patent US8367873B2, “Phenyl-substituted bicyclooctane-1,3-dione derivatives” (Bayer Cropscience AG, priority 2008, dated 2013).

What was measured:
Type in all cases: in vivo
Alopecurus myosuroides [1] = assay: Herbicidal pre-emergence action; conditions: pre-emergence method, 80 g/ha, greenhouse, visual assessment vs untreated controls
Procedure, shortened: (§1)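 Visual percent effect relative to untreated controls (0% = like control, 100% = dead) assessed three weeks after treatment in the greenhouse. Compounds, as wettable powders in water (600 l/ha, 0.2% wetting agent), were sprayed at different amounts onto covering soil over seeds sown in sandy loam.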

Echinocloa crus-galli [2] = assay: Herbicidal pre-emergence action; conditions: pre-emergence method, 80 g/ha, greenhouse, visual assessment vs untreated controls
Procedure, shortened: as §1

Lolium multiflorum [3] = assay: Herbicidal pre-emergence action; conditions: pre-emergence method, 80 g/ha, greenhouse, visual assessment vs untreated controls
Procedure, shortened: as §1

Setaria viridis [4] = assay: Herbicidal pre-emergence action; conditions: pre-emergence method, 80 g/ha, greenhouse, visual assessment vs untreated controls
Procedure, shortened: as §1

Alopecurus myosuroides [5] = assay: Herbicidal post-emergence action; conditions: post-emergence method, 80 g/ha
Procedure, shortened: (§2)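 Greenhouse-grown weeds were treated post-emergence at the one-leaf stage, two to three weeks after sowing in sandy loam. Compounds formulated as WP were sprayed at various rates in 600 l/ha water with 0.2% wetting agent. Damage was scored visually after about three weeks versus untreated controls (0% = like control, 100% = dead).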

Echinocloa crus-galli [6] = assay: Herbicidal post-emergence action; conditions: post-emergence method, 80 g/ha
Procedure, shortened: as §2

Lolium multiflorum [7] = assay: Herbicidal post-emergence action; conditions: post-emergence method, 80 g/ha
Procedure, shortened: as §2

Setaria viridis [8] = assay: Herbicidal post-emergence action; conditions: post-emergence method, 80 g/ha
Procedure, shortened: as §2

[9] = test system: monocotylidonous and dicotylidonous weed and crop plants; assay: Herbicidal pre-emergence action (other test plants); conditions: pre-emergence method, 80 g/ha, greenhouse, visual assessment vs untreated controls
Procedure, shortened: as §1

[10] = test system: monocotylidonous and dicotylidonous weed and crop plants; assay: Herbicidal post-emergence action (other test plants); conditions: post-emergence method, 80 g/ha
Procedure, shortened: as §2

| Compound | herbicidal effect ALOMY (Alopecurus myosuroides [1]) [%] | herbicidal effect ECHCG (Echinocloa crus-galli [2]) [%] | herbicidal effect LOLMU (Lolium multiflorum [3]) [%] | herbicidal effect SETVI (Setaria viridis [4]) [%] | herbicidal effect against ALOMY (Alopecurus myosuroides) (Alopecurus myosuroides [5]) [%] | herbicidal effect against ECHCG (Echinochloa crus-galli) (Echinocloa crus-galli [6]) [%] | herbicidal effect against LOLMU (Lolium multiflorum) (Lolium multiflorum [7]) [%] | herbicidal effect against SETVI (Setaria viridis) (Setaria viridis [8]) [%] | herbicidal effect AVEFA [9] [%] | herbicidal effect against AVEFA (Avena fatua) [10] [%] |
| --- | --- | --- | --- | --- | --- | --- | --- | --- | --- | --- |
| CCc1cc(C)cc(CC)c1C1=C(OC(=O)OC)C2CC3(CC2C1=O)OCCS3 (mixture of isomers) [I-c-31] | 90 | 60 | 0 | 60 | 70 | 100 | 100 | 90 | 80 | 90 |
| CCc1cc(C)cc(CC)c1C1=C(OC(=O)OC)C2CC3(CC2C1=O)OCCCS3 (mixture of isomers) [I-c-32] | 80 | 100 | 100 | 70 | 80 | 90 | 90 | 80 | 70 | 90 |
| CCc1cc(C)cc(CC)c1C1=C(OC(=O)OC(C)C)C2CC3(CC2C1=O)OCCS3 (mixture of isomers) [I-c-33] | 90 | 90 | 100 | 60 | 80 | 100 | 90 | 80 | 90 | 90 |
| COC(=O)OC1=C(c2c(C)cc(C)cc2C)C(=O)C2CC3(CC12)OCC(C)CO3 (mixture of isomers) [I-c-53] | 100 | 0 | 90 | 60 | 100 | 90 | 100 | 90 | 50 | 80 |
| CCOC(=O)OC1=C(c2c(C)cc(C)cc2C)C(=O)C2CC3(COC(C)(C)O3)CC12 (mixture of isomers) [I-c-54] | 90 | 0 | 90 | 0 | 90 | 90 | 80 | 40 | 40 | 0 |
| COC(=O)OC1=C(c2c(C)cc(C)cc2C)C(=O)C2CC3(COC(C)(C)O3)CC12 (mixture of isomers) [I-c-56] | 90 | 20 | 90 | 0 | 90 | 80 | 80 | 40 | 20 | 20 |
| CCc1cc(C)cc(C)c1C1=C(OC(=O)OC(C)C)C2CC3(COC(C)(C)O3)CC2C1=O (mixture of isomers) [I-c-78] | 100 | 100 | 100 | 80 | 100 | 90 | 100 | 80 | 90 | 0 |
| CCc1cc(C)cc(C)c1C1=C(OC(=O)OC)C2CC3(COC(C)(C)O3)CC2C1=O (mixture of isomers) [I-c-79] | 90 | 100 | 100 | 80 | 100 | 100 | 100 | 90 | 80 | 70 |
| CCOC(=O)OC1=C(c2c(C)cc(C)cc2CC)C(=O)C2CC3(COC(C)(C)O3)CC12 (mixture of isomers) [I-c-80] | 100 | 100 | 100 | 60 | 90 | 100 | 100 | 90 | 60 | 70 |
| C=C1CC2C(=O)C(c3c(C)cc(C)cc3C)=C(OC(=O)OCC)C2C1 (racemic) [I-c-45] | 60 | 80 | 80 | 80 | 40 | 90 | 100 | 90 | 80 | 0 |
| C=C1CC2C(=O)C(c3c(C)cc(C)cc3C)=C(OC(=O)OC)C2C1 (racemic) [I-c-46] | 80 | 80 | 70 | 80 | 40 | 80 | 90 | 90 | 50 | 0 |
| CCOC(=O)OC1=C(c2c(C)cc(C)cc2C)C(=O)C2CC3(CC12)OCCCCO3 (racemic) [I-c-50] | 30 | 0 | 100 | 0 | 60 | 80 | 100 | 80 | 0 | 0 |
| CCOC(=O)OC1=C(c2c(C)cc(C)cc2C)C(=O)C2CC3(CC12)OCC=CCO3 (racemic) [I-c-51] | 100 | 30 | 90 | 90 | 100 | 100 | 100 | 100 | 60 | 40 |
| COC(=O)OC1=C(c2c(C)cc(C)cc2C)C(=O)C2CC3(CC12)OCC=CCO3 (racemic) [I-c-52] | 60 | 50 | 100 | 70 | 100 | 90 | 100 | 100 | 70 | 80 |
